Laboratory results as given in ChEMBL document CHEMBL1154216, “Development of a novel expression, ZI MAX/K ZI, for determination of the counter-anion effect on the antimicrobial activity of tetrabutylammonium salts” (2009).

What was measured:
Escherichia coli = test: Antimicrobial activity against Escherichia coli K-12 C600 assessed as ratio of maximum zone of inhibition to concentration required to reach half maximum zone of inhibition after 24 hrs; format: functional
[1] = test system: Staphylococcus epidermidis; format: functional, ATCC 12228
Description: Antimicrobial activity against Staphylococcus epidermidis ATCC 12228 assessed as ratio of maximum zone of inhibition to concentration required to reach half maximum zone of inhibition after 24 hrs

Row | SMILES | ZImax/KZI (Escherichia coli) | ZImax/KZI [1]
1 | CCCC[N+](CCCC)(CCCC)CCCC.Cc1ccc(S(=O)(=O)[O-])cc1 | 0 mm microL/micromol | 8.55 mm microL/micromol
2 | CC(O)C(=O)[O-].CCCC[N+](CCCC)(CCCC)CCCC | 0 mm microL/micromol | 103.09 mm microL/micromol
3 | CCCC[N+](CCCC)(CCCC)CCCC.O=[N+]([O-])[O-] [BIS(TETRABUTYLAMMONIUM)MONONITRATE] | 0.333 mm microL/micromol | 30.67 mm microL/micromol
4 | Br.Br.CCCC[N+](CCCC)(CCCC)CCCC.[Br-] [MONO(TETRABUTYLAMMONIUM)TRIBROMIDE] | 37.59 mm microL/micromol | 48.08 mm microL/micromol
5 | CC(=O)[O-].CCCC[N+](CCCC)(CCCC)CCCC [TETRABUTYLAMMONIUM ACETATE] | 4.2 mm microL/micromol | 37.88 mm microL/micromol
6 | CCCC[N+](CCCC)(CCCC)CCCC.O=C([O-])c1ccccc1 [TETRABUTYLAMMONIUM BENZOATE] | 0.333 mm microL/micromol | 39.81 mm microL/micromol
7 | CCCC[N+](CCCC)(CCCC)CCCC.[Br-] [TETRABUTYLAMMONIUM BROMIDE] | 0.516 mm microL/micromol | 16.69 mm microL/micromol
8 | CCCC[N+](CCCC)(CCCC)CCCC.O=P([O-])(O)O [TETRABUTYLAMMONIUM DIHYDROGENPHOSPHATE] | 0 mm microL/micromol | 23.58 mm microL/micromol
9 | CCCC[N+](CCCC)(CCCC)CCCC.[F-] [TETRABUTYLAMMONIUM FLUORIDE] | 0.842 mm microL/micromol | 15.82 mm microL/micromol
10 | CCCC[N+](CCCC)(CCCC)CCCC.O=S(=O)([O-])O [TETRABUTYLAMMONIUM HYDROGENSULFATE] | 4.98 mm microL/micromol | 84.03 mm microL/micromol
11 | CCCC[N+](CCCC)(CCCC)CCCC.[OH-] [TETRABUTYLAMMONIUM HYDROXIDE] | 4.06 mm microL/micromol | 27.17 mm microL/micromol
12 | CCCC[N+](CCCC)(CCCC)CCCC.[I-] [TETRABUTYLAMMONIUM IODIDE] | 0.381 mm microL/micromol | 140.85 mm microL/micromol
13 | CCCC[N+](CCCC)(CCCC)CCCC.CS(=O)(=O)[O-] [TETRABUTYLAMMONIUM METHANESULFONATE] | 0.167 mm microL/micromol | 23.53 mm microL/micromol
14 | CCCC[N+](CCCC)(CCCC)CCCC.[O-][Cl+3]([O-])([O-])[O-] [TETRABUTYLAMMONIUM PERCHLORATE] | 0 mm microL/micromol | 14.77 mm microL/micromol
15 | CCCC[N+](CCCC)(CCCC)CCCC.O=P[O-] [TETRABUTYLAMMONIUM PHOSPHENITE] | 0.408 mm microL/micromol | 52.08 mm microL/micromol
16 | CCCC[N+](CCCC)(CCCC)CCCC.F[B-](F)(F)F [TETRABUTYLAMMONIUM TETRAFLUOROBORATE] | 0.499 mm microL/micromol | 25.71 mm microL/micromol
17 | CCCC[N+](CCCC)(CCCC)CCCC.N#C[S-] [TETRABUTYLAMMONIUM THIOCYANATE] | 6.28 mm microL/micromol | 11.59 mm microL/micromol
18 | CCCC[N+](CCCC)(CCCC)CCCC.O=S(=O)([O-])C(F)(F)F [TETRABUTYLAMMONIUM TRIFLUOROMETHANESULFONATE] | 0.067 mm microL/micromol | 64.94 mm microL/micromol
19 | CCCC[N+](CCCC)(CCCC)CCCC.[Cl-] [TETRABUTYLAMMONIUM] | 0.382 mm microL/micromol | 23.58 mm microL/micromol
